Measured values taken from patent publication US20130109693A1, “DERIVATIVES OF PYRIDO [3,2-D] PYRIMIDINE, METHODS FOR PREPARATION THEREOF AND THERAPEUTIC USES THEREOF” (UNIVERSITE D'ORLEANS, priority 2010, published 2013).

Columns and labels:
Huh7 = experiment: Cytotoxicity on human cells, Huh7 (liver); assay type: cell-based; conditions: Huh-7, human cells, exposed 24 h and 48 h, 0.1 to 25 μM
Method: (§1) […] Dosages on Human cells (Huh7, Caco, MDA-MB 231, HCT 116, PC3, NCl, Fibroblast)
(§2) Cytotoxicity: This method is based on an automated imaging analysis. 4.10^3 cells were cultivated on 96-well plates and thus left for 24 hours so that they may bind, be distributed and proliferate.
(§3) These cells were then exposed for 24 h and 48 h to increasing concentrations of the compounds of the invention, from 0.1 to 25 μM in a final volume of 80 μL of culture medium. The cells are then set with a 4% paraformaldehyde solution and the nuclei are colored with Hoechst 3342 and counted according to automated imaging quantification.
(§4) All the cell lines were cultivated in a DMEM or RPMI (Invitrogen) medium. All these media were completed with antibiotics (penicillin-streptomycin)(Lonza) and 10% by volume of foetal calf serum (Invitrogen). The cells were cultivated at 37° C. with 5% of CO2. The treatments with the molecules to be tested were carried out with increasing concentrations. […] The control experiments were also conducted by using suitable dilutions of DMSO (maximum 1% DMSO). Cell viability was determined by measuring the reduction of MTS as described in the article of Ribas J, Boix J. (2004). Cell differentiation caspase inhibition and macromolecular synthesis blockage but not BCL-2 or BCL-XL proteins protect SH-SY5Y cells from apoptosis triggered by two CDK inhibitory drugs. Exp. Cell Res., 295: 9-24.

Caco = experiment: Cytotoxicity on human cells, Caco (colon); assay type: cell-based; conditions: exposed 24 h and 48 h, 0.1 to 25 μM
Method: as §1, §2, §3, §4

MDA-MB 231 = experiment: Cytotoxicity on human cells, MDA-MB 231 (breast); assay type: cell-based; conditions: MDA-MB-231, human cells, exposed 24 h and 48 h, 0.1 to 25 μM
Method: as §1, §2, §3, §4

HCT 116 = experiment: Cytotoxicity on human cells, HCT 116 (colon); assay type: cell-based; conditions: exposed 24 h and 48 h, 0.1 to 25 μM
Method: as §1, §2, §3, §4

PC3 = experiment: Cytotoxicity on human cells, PC3 (prostate); assay type: cell-based; conditions: PC-3, human cells, exposed 24 h and 48 h, 0.1 to 25 μM
Method: as §1, §2, §3, §4

NCI = experiment: Cytotoxicity on human cells, NCI (lung); assay type: cell-based; conditions: exposed 24 h and 48 h, 0.1 to 25 μM
Method: as §1, §2, §3, §4

fibroblast = experiment: Cytotoxicity on human cells, fibroblast; assay type: cell-based; conditions: exposed 24 h and 48 h, 0.1 to 25 μM
Method: as §1, §2, §3, §4

DYRK1A = DYRK1A (Homo sapiens, UniProt Q13627); experiment: DYRK1A kinase inhibition (Woodtide substrate, buffer A); assay type: biochemical; conditions: 15 μM ATP, 30° C., recombinant GST fusion; read-out: IC50 Kinases DYRK1A
Method: (§5) The activities for inhibiting protein kinases of the compounds of the invention are tested according to the following general procedure:
(§6) Buffer A: 10 mM MgCl2, 1 mM EGTA, 1 mM DTT, 25 mM Tris-HCl pH 7.5 and 50 μg heparin/mL.
(§7) The kinase activities are dosed in buffers A or C, at 30° C., at a final concentration of ATP of 15 μM. The values of the blanks were subtracted and the activities are expressed as a % of the maximum activity, i.e. in the absence of inhibitors. The controls were carried out with suitable dilutions of DMSO.

CDK5 = target: T1, CDK5 (Homo sapiens, UniProt Q00535); experiment: CDK5 kinase inhibition (histone H1, [γ-33P] ATP, buffer C); assay type: biochemical; conditions: 15 μM ATP, 30° C., recombinant; read-out: IC50 Kinases CDK5
T1 construct: made in house
T1 sequence (Q00535 whole entry): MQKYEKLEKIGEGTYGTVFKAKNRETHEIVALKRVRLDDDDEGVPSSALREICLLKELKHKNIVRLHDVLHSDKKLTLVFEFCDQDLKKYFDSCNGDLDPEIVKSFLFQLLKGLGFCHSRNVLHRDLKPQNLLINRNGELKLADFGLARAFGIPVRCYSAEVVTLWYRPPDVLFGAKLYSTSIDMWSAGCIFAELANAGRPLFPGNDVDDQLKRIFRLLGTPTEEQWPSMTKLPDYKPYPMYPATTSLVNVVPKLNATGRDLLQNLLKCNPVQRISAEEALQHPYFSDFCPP
T1 sequence (Q15078 99-307 partner limits assumed): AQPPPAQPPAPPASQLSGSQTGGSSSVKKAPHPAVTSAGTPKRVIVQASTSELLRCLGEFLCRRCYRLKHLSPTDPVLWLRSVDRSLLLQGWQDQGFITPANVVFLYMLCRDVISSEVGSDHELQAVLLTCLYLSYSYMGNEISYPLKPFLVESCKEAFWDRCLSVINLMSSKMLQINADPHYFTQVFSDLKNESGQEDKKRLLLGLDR
Method: as §5
Buffer C: 60 mM β-glycerophosphate, 15 mM p-nitrophenyl-phosphate, 25 mM Mops (pH 7.2), 5 mM EGTA, 15 mM MgCl2, 1 mM DTT, 1 mM of sodium vanadate
as §7
CDK5 (humane, recombinant) was prepared as described earlier (Leclerc, S.; Garnier, M.; Hoessel, R.; Marko, D.; Bibb, J. A.; Snyder, G. L.; Greengard, P.; Biernat, J.; Mandelkow, E.-M.; Eisenbrand, G.; Meijer, L. Indirubins inhibit glycogen synthase kinase-3β and CDK5/p25, two kinases involved in abnormal tau phosphorylation in Alzheimer's disease—A property common to most CDK inhibitors? J. Biol. Chem. 2001, 276, 251-260; Bach S, Knockaert M, Reinhardt J, Lozach O, Schmitt S, Baratte B et al. (2005). Roscovitine targets, protein kinases and pyridoxal kinase. J. Biol Chem 280: 31208-31219). Its kinase activity was analyzed in the buffer C, with 1 mg of histone H1/mL, in the presence of 15 μM of [γ-^33P] ATP (3,000 Ci/mmol; 10 mCi/mL) in a final volume of 30 μl. After 30 mins of incubation at 30° C., 25 μl of supernatant aliquots were deposited on 2.5×3 cm pieces of phosphocellulose Whatman P81 paper, and after 20 seconds, the filters were washed five times (for at least 5 minutes every time) in a solution of 10 mL phosphoric acid/liter of water. The wet filters were counted in the presence of 1 mL of ACS scintillator fluid (Amersham).

GSK-3αβ = GSK-3αβ kinase inhibition (GS-1 substrate, buffer A); assay type: biochemical; conditions: 15 μM ATP, 30° C., native, pig brain; read-out: IC50 Kinases GSK3
Method: as §5, §6, §7
GSK-3αβ (from pig brain, native) was assayed by using a specific substrate of GSK-3 (GS-1: […]pEDEEE)(Sp represents a phosphorylated serine) (Primot, A., Baratte, B., Gompel, M., Borgne, A., Liabeuf, S., Romette, J. L., Costantini, F. and Meijer, L., 2000. Purification of GSK-3 by affinity chromatography on immobilized axin. Protein Expr. & Purif. 20 (3), 394-404). GS-1 was synthesized by Millegen (Labège, France). Its kinase activity was analyzed in the buffer A, with 1 mg of histone H1/mL, in the presence of 15 μM of [γ-^33P] ATP (3,000 Ci/mmol; 10 mCi/mL) in a final volume of 30 μl. After 30 mins of incubation at 30° C., 25 μl of supernatant aliquots were deposited on 2.5×3 cm pieces of phosphocellulose Whatman P81papier, and after 20 seconds, the filters were washed five times (for at least 5 minutes every time) in a solution of 10 mL of phosphoric acid/liter of water. The wet filters were counted in the presence of 1 mL of ACS scintillator fluid (Amersham).

Row | IC50 (DYRK1A) [µM] | IC50 (CDK5) [µM] | IC50 (GSK-3αβ) [µM] | melting point [°C] | SMILES | IC50 (Huh7) [µM] | IC50 (Caco) [µM] | IC50 (MDA-MB 231) [µM] | IC50 (HCT 116) [µM] | IC50 (PC3) [µM] | IC50 (NCI) [µM] | IC50 (fibroblast) [µM]
1 | > 10 | 5.3 | > 10 | > 268 | Oc1ccc(-c2ncc3ncc(Nc4nc5ccccc5s4)cc3n2)cc1 [Compound 47, 2-(4-Hydroxyphenyl)-7-(2-benzothiazolamino)-pyrido[3,2-d]pyrimidine] | > 25 | > 25 | > 25 | > 25 | > 25 | > 25 | > 25
2 | > 10 | > 10 | > 10 | 149 to 150 | COc1ccc(Nc2cnc3c(NCc4ccccc4)nc(NCCO)nc3c2)cc1OC [Compound 85, 4-Benzylamino-7-(3,4-dimethoxyphenylamino)-2-(2-hydroxyethylamino)-pyrido[3,2-d]pyrimidine] | 1.5 | 4 | 15 | 4 | 4 | 2 | 5
3 | 2.7 | 0.09 | ≥ 100 | 278 to 279 | Oc1ccc(-c2ncc3ncc(-c4ccccc4O)cc3n2)cc1 [Compound 24, 2-(4-Hydroxyphenyl)-7-(2-hydroxyphenyl)-pyrido[3,2-d]pyrimidine] | 25 | 20 | > 25 | 20 | 20 | > 25 | > 25
4 | > 10 | 1.8 | 7.3 | 134 to 136 | COc1ccc(Nc2cnc3cnc(-c4ccc(O)cc4)nc3c2)cc1 [Compound 51, 2-(4-Hydroxyphenyl)-7-(4-methoxyphenylamino)-pyrido[3,2-d]pyrimidine] | 15 | 12 | 15 | 15 | 2 | 10 | 10
5 | > 10 | 0.65 | > 10 | > 268 | Oc1ccc(-c2ncc3ncc(-c4cccnc4)cc3n2)cc1 [Compound 33, 2-(4-Hydroxyphenyl)-7-(3-pyridinyl)-pyrido[3,2-d]pyrimidine] | > 25 | > 25 | > 25 | > 25 | > 25 | > 25 | > 25
6 | > 10 | > 10 | > 10 | 125 to 126 | CC(=O)c1ccc(Nc2cnc3c(NCc4ccccc4)nc(NCCO)nc3c2)cc1 [Compound 86, 4-Benzylamino-7-(4-acetylphenylamino)-2-(2-hydroxyethylamino)-pyrido[3,2-d]pyrimidine] | 2 | 3 | 15 | 1 | 3 | 2 | 5
7 | 2 | 2.1 | > 10 | > 268 | Oc1ccc(-c2ncc3ncc(Nc4ccon4)cc3n2)cc1 [Compound 48, 2-(4-Hydroxyphenyl)-7-(3-isoxazolamino)-pyrido[3,2-d]pyrimidine] | 25 | 20 | 12 | 9 | 20 | 3 | 15
8 | > 10 | > 10 | > 10 | 239 to 240 | Oc1ccccc1-c1cnc2cnc(-c3ccccc3O)nc2c1 [Compound 22, 2,7-Di-(2-hydroxyphenyl)-pyrido[3,2-d]pyrimidine] | > 25 | > 25 | > 25 | > 25 | > 25 | 2 | > 25
9 | > 10 | 0.71 | 4.5 | > 268 | Oc1ccc(Nc2ncc3ncc(-c4cccc(O)c4)cc3n2)cc1 [Compound 61, 2-(4-Hydroxyphenylamino)-7-(3-hydroxyphenyl)-pyrido[3,2-d]pyrimidine] | 10 | 12 | 9 | 12 | 7 | 4 | 2
10 | > 10 | 7.6 | > 10 | > 268 | Oc1ccc(-c2ncc3ncc(Nc4ncccn4)cc3n2)cc1 [Compound 52, 2-(4-Hydroxyphenyl)-7-(2-pyrimidinylamino)-pyrido[3,2-d]pyrimidine] | 25 | 5 | 2.5 | 2 | 1.5 | 1.5 | 2
11 | > 10 | > 10 | > 10 | 186 to 188 | Cc1ncccc1Nc1cnc2cnc(-c3ccc(O)cc3)nc2c1 [Compound 53, 2-(4-Hydroxyphenyl)-7-(3-(2-methyl)-pyridinylamino)-pyrido[3,2-d]pyrimidine] | 12 | 15 | 9 | > 25 | 6 | 15 | 10
12 | > 10 | 1.8 | > 10 | 261 to 263 | Oc1ccc(-c2ncc3ncc(-c4ccco4)cc3n2)cc1 [Compound 35, 2-(4-Hydroxyphenyl)-7-(2-furyl)-pyrido[3,2-d]pyrimidine] | 15 | > 25 | 4 | 5 | 20 | 7 | 6
